Results taken from patent US20260034065A1, “EXTENDED RELEASE PHARMACEUTICAL FORMULATION” (Douglas Pharmaceuticals Ltd., priority 2020, published 2026).

What was measured:
[1] = subcutaneous dosing, unpublished data
[2] = Study ZPS-603 Cohort 4: mood ratings (HAMA, FQ, MADRS) in patients with TRD/TRA; type: in vivo, human; settings: study 603 cohort 4 participants (FIG. 7)
Method: The objective of Cohort 4 was to evaluate efficacy, safety, PK and PD of an extended release ketamine oral formulation in patients with treatment-resistant depression and/or treatment-resistant anxiety (TRD/TRA). […] The design was an open label multiple ascending dose study. The initial dose was 60 mg, and could be escalated by an additional 60 mg 12 hourly, based on assessment of mood symptoms, to a maximum dose of 240 mg, with a total of 7 doses given 12 hourly between 0 and 72 hours. Endpoints included safety, tolerability, ketamine and norketamine PK, and PD (mood ratings including the Fear Questionnaire (FQ; Marks 1979), HAMA and MADRS, and dissociative symptom rating scale scores).
Anxiety Rating Scales: HAMA and FQ: Individual and group mean HAMA and FQ scores by timepoint are shown in FIG. 6 (6A: HAMA; 6B: FQ) There was a consistent trend for both scores to decrease over time, most noticeably in patients with higher baseline scores. […] All seven participants were assessed to be treatment responders (>50% reduction) based on changes in
There was a consistent trend for scores to decrease over time, most noticeably in patients with higher baseline scores. All seven participants were assessed to be treatment responders (>50% reduction) based on change in MADRS scores. […]

[3] = injected by any route of administration, e.g. Loo 2016; cited from earlier work

For `CNC1(c2ccccc2Cl)CCCCC1=O` (stereo not drawn) [Ketamine solution, 2-(2-chlorophenyl)-2-(methylamino) cyclohexan-1-one], the “Mean Tmax-ketamine” value [1] is listed as 38.4 min, the “onset of improvement of anxiety symptoms” value [2] is listed as 1 to 2 h and the “duration of marked dissociative symptoms after dosing” value [3] is listed as “up to 60 minutes”.
